Results published in PMC3433420 (PLoS ONE, 2012).
Read-outs that look alike come from different tables or passages of the source. Blank lines part the entries; values can stand above or below the compound they belong to. Residues, ends and D or L forms follow the SMILES beside them.

Key:
GRAP2 SH2 domain = target: T1, GRAP2 SH2 domain (Homo sapiens, UniProt O75791); assay: FP saturation binding assay; conditions: for share of the ErbB1 binding FE for GRAP2: free energy from FP KDs as percentage of total receptor recruitment (Figure S16)
T1 sequence (O75791 58-149 limits assumed): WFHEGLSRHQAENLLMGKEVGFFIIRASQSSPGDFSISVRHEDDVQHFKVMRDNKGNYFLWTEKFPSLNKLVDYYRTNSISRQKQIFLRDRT

GRB2 SH2 domain = GRB2 SH2 domain (Homo sapiens, UniProt P62993); assay: FP saturation binding assay; conditions: for share of the ErbB1 binding FE for GRB2: free energy from FP KDs as percentage of total receptor recruitment (Figure S16)
HSH2D SH2 domain = target: T2, HSH2D SH2 domain (Homo sapiens, UniProt Q96JZ2); assay: FP saturation binding assay
T2 sequence (Q96JZ2 34-125 limits assumed): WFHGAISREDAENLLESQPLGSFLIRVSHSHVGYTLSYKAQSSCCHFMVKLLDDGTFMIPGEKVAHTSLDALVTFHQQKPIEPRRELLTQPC

PTPN11-N SH2 domain = target: T3, PTPN11-N SH2 domain (Homo sapiens, UniProt Q06124); assay: FP saturation binding assay
T3 sequence (Q06124 6-102 limits assumed): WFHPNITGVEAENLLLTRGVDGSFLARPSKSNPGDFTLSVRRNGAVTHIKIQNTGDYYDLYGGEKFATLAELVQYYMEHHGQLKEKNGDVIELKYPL

[1] = target: T4, PTPN11-NC tandem SH2 domains (Homo sapiens, UniProt Q06124); assay: FP saturation binding assay
T4 sequence (Q06124 6-216 limits assumed): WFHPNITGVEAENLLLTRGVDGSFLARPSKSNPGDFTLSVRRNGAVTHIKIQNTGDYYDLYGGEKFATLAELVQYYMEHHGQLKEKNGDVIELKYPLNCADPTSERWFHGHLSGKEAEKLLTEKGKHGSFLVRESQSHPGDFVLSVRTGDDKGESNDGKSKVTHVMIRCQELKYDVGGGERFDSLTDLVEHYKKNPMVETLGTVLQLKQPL

SH2D1B SH2 domain = target: T5, SH2D1B SH2 domain (Homo sapiens, UniProt O14796); assay: FP saturation binding assay
T5 sequence (O14796 5-101 limits assumed): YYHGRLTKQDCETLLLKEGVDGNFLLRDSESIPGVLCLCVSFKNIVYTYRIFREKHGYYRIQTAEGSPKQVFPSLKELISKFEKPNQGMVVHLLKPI

PIK3R3-C SH2 domain = target: T6, PIK3R3-C SH2 domain (Homo sapiens, UniProt Q92569); assay: biochemical; assay type: binding; conditions: protein PIK3R3-C; high-confidence ErbB interactions; mean of replicate hits
T6 construct: thioredoxin; made in house; host or cells: E. coli BL21(DE3)pLysS

LCK SH2 domain = target: T7, LCK SH2 domain (Homo sapiens, UniProt P06239); assay: FP saturation binding assay; conditions: protein LCK; high-confidence ErbB interactions; mean of replicate hits
T7 construct: 93 SH2 and 2 PTB domain-containing constructs; 6X His; thioredoxin; made in house; host or cells: E. coli BL21(DE3)pLysS
Summary of the method: (§1)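 Rhodamine-labeled phosphopeptides (10 nM final) titrated with SH2 domain protein (0.002–10 µM, 12 points) in 20 mM HEPES, 100 mM KCl, 0.1% Tween-20, 5 mM DTT, pH 7.8; 20 min, room temperature, dark. FP read at 530/555 nm; KD fitted by nonlinear regression after thioredoxin background correction and outlier removal.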

PTK6 SH2 domain = target: T8, PTK6 SH2 domain (Homo sapiens, UniProt Q13882); assay: FP saturation binding assay; conditions: protein PTK6; high-confidence ErbB interactions; mean of replicate hits
T8 construct: from the PTK6 SH2 domain; 6X His; thioredoxin; made in house; host or cells: E. coli BL21(DE3)pLysS
Summary of the method: as §1

RASA1-N SH2 domain = target: T9, RASA1-N SH2 domain (Homo sapiens, UniProt P20936); assay: FP saturation binding assay
T9 sequence (P20936 181-272 limits assumed): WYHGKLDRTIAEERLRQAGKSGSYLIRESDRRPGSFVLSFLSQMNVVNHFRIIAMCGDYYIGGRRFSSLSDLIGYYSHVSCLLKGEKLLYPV

SH2 and PTB domains = conditions: ref Jones et al. 2006 / Kaushansky et al. Mol Biosys 2008 / Kaushansky et al. Chem and Biol 2008, cited from earlier work
From the text: Supplement pone.0044471.s022.xlsx, sheet "Most recent PM interactions" | column: Kd || Supplement pone.0044471.s022.xlsx, sheet "All original PM interactions" | column: Kd

Chain of GRB2 SH2 domain (P62993 60-152 limits assumed): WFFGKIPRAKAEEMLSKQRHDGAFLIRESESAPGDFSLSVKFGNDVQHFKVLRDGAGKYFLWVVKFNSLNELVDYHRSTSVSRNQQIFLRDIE
T7 sequence (P06239 127-224 limits assumed): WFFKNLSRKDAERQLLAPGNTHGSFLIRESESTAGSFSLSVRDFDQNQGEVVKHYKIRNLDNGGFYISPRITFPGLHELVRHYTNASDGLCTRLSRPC
T8 sequence (Q13882 78-170 limits assumed): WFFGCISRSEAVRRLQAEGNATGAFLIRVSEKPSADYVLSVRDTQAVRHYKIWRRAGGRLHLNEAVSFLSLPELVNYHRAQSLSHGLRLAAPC

Compound: CC(C)C[C@H](NC(=O)[C@@H]1CCCN1)C(=O)N[C@H](C(=O)N[C@@H](CS)C(=O)N[C@@H](CO)C(=O)N1CCC[C@H]1C(=O)N[C@@H](CCC(N)=O)C(=O)N1CCC[C@H]1C(=O)N[C@@H](CCC(=O)O)C(=O)N[C@@H](Cc1ccc(OP(=O)(O)O)cc1)C(=O)N[C@H](C(=O)N[C@@H](CC(N)=O)C(=O)N[C@@H](CCC(N)=O)C(=O)N1CCC[C@H]1C(=O)N[C@@H](CC(=O)O)C(=O)N[C@H](C(=O)N[C@@H](CCCNC(=N)N)C(=O)N[C@@H](CC(=O)O)C(=O)O)C(C)C)C(C)C)[C@@H](C)O [ErbB2 1139 18-mer] (HELM PEPTIDE1{P.L.T.C.S.P.Q.P.E.[O=C([C@H](Cc1ccc(OP(=O)(O)O)cc1)N[*:1])[*:2]].V.N.Q.P.D.V.R.D}$$$$V2.0)
Kd (GRAP2 SH2 domain): 560 nM
Kd (GRB2 SH2 domain): 1380 nM
Kd (HSH2D SH2 domain): 2820 nM

Compound: CC[C@H](C)[C@H](NC(=O)[C@@H]1CCCN1C(=O)[C@@H](NC(=O)[C@H](CCCCN)NC(=O)[C@H](C)NC(=O)[C@H](CCC(=O)O)NC(=O)[C@H](CO)NC(=O)[C@H](Cc1ccc(OP(=O)(O)O)cc1)NC(=O)[C@H](CC(C)C)NC(=O)[C@H](CC(C)C)NC(=O)[C@H](CCC(N)=O)NC(=O)[C@@H](N)CCCCN)[C@@H](C)O)C(=O)N[C@@H](CC(=O)O)C(=O)O [ErbB3 868 13-mer] (HELM PEPTIDE1{K.Q.L.L.[O=C([C@H](Cc1ccc(OP(=O)(O)O)cc1)N[*:1])[*:2]].S.E.A.K.T.P.I.D}$$$$V2.0)
Kd (PTPN11-N SH2 domain): 3610 nM
Kd [1]: 3680 nM
Kd (SH2D1B SH2 domain): 4960 nM

Compound: CC(C)C[C@H](NC(=O)[C@H](CO)NC(=O)[C@H](Cc1c[nH]cn1)NC(=O)[C@H](CC(N)=O)NC(=O)[C@H](Cc1c[nH]c2ccccc12)NC(=O)[C@H](Cc1ccc(OP(=O)(O)O)cc1)NC(=O)[C@H](CC(=O)O)NC(=O)[C@@H]1CCCN1C(=O)[C@H](CC(N)=O)NC(=O)[C@@H](N)CC(=O)O)C(=O)N1CCC[C@H]1C(=O)N1CCC[C@H]1C(=O)N[C@@H](CC(=O)O)C(=O)O [ErbB4 1242 13-mer] (HELM PEPTIDE1{D.N.P.D.[O=C([C@H](Cc1ccc(OP(=O)(O)O)cc1)N[*:1])[*:2]].W.N.H.S.L.P.P.D}$$$$V2.0)
Kd (PIK3R3-C SH2 domain): 8290 nM
Kd (LCK SH2 domain): 4460 nM
Kd (PTK6 SH2 domain): 2760 nM
Kd (HSH2D SH2 domain): 7370 nM
Kd (RASA1-N SH2 domain): 5030 nM

share of the ErbB1 binding FE for GRAP2 (GRAP2 SH2 domain): 50%
share of the ErbB1 binding FE for GRB2 (GRB2 SH2 domain): 50%
Compound: GNPEpYLNTVQPTd [ErbB1 pY1138]
Kd (SH2 and PTB domains; protein ABL2): 85 nM
Kd (SH2 and PTB domains; protein GRB2): 720 nM
Kd (SH2 and PTB domains; protein ITK): 1760 nM
Kd (SH2 and PTB domains; protein NCK2): 330 nM
Kd (SH2 and PTB domains; protein PIK3R1-NC): 1570 nM
Kd (SH2 and PTB domains; protein PIK3R2-N): 760 nM
Kd (SH2 and PTB domains; protein PIK3R2-NC): 860 nM
Kd (SH2 and PTB domains; protein PIK3R3-N): 840 nM
Kd (SH2 and PTB domains; protein PIK3R3-NC): 1690 nM
Kd (SH2 and PTB domains; protein RASA1-N): 390 nM
Kd (SH2 and PTB domains; protein SHC1-PTB): 130 nM
Kd (SH2 and PTB domains; protein VAV2): 370 nM
Kd (SH2 and PTB domains; protein ZAP70-NC): 1140 nM

share of the ErbB1 binding FE for GRAP2 (GRAP2 SH2 domain): 50%
share of the ErbB1 binding FE for GRB2 (GRB2 SH2 domain): 50%
Compound: PVPEpYINQSVPKd [ErbB1 pY1092]
Kd (SH2 and PTB domains; protein ABL1): 920 nM
Kd (SH2 and PTB domains; protein ABL2): 150 nM
Kd (SH2 and PTB domains; protein BLK): 300 nM
Kd (SH2 and PTB domains; protein GRB2): 200 nM
Kd (SH2 and PTB domains; protein GRB10): 1300 nM
Kd (SH2 and PTB domains; protein ITK): 220 nM
Kd (SH2 and PTB domains; protein NCK2): 1100 nM
Kd (SH2 and PTB domains; protein PIK3R1-N): 1080 nM
Kd (SH2 and PTB domains; protein PIK3R1-NC): 670 nM
Kd (SH2 and PTB domains; protein PIK3R2-N): 450 nM
Kd (SH2 and PTB domains; protein PIK3R2-NC): 1410 nM
Kd (SH2 and PTB domains; protein PIK3R3-N): 510 nM
Kd (SH2 and PTB domains; protein PIK3R3-NC): 1020 nM
Kd (SH2 and PTB domains; protein PLCG2-NC): 1630 nM
Kd (SH2 and PTB domains; protein RASA1-N): 180 nM
Kd (SH2 and PTB domains; protein SRC): 1790 nM
Kd (SH2 and PTB domains; protein SYK-C): 1920 nM
Kd (SH2 and PTB domains; protein SYK-NC): 910 nM
Kd (SH2 and PTB domains; protein VAV2): 540 nM
Kd (SH2 and PTB domains; protein YES1): 340 nM
